What all share (experiment): ≥ marks a high value that may be exact or a test limit, other limits are often not marked, values filed in µg/mL are converted to µM
Assay [1] concerns Pseudomonas aeruginosa ATCC 27853.
The test system of assay [2] is Enterococcus faecalis ATCC 29212.
Assay [3] relates to Staphylococcus aureus ATCC 25325.
Assay [4] has as its system Escherichia coli ATCC 35218.
Assay [5] relates to Lactobacillus acidophilus CGMCC 1.1854.
For assay [6], the system named is Enterococcus faecium CGMCC 1.2334.
The test system of assay [7] is Streptococcus salivarius CGMCC 1.2498.
Assay [8] deals with Candida albicans CMCC 98001.
Assay [9] concerns Fusobacterium nucleatum CGMCC 1.2526.
Assay [10] relates to Klebsiella aerogenes CGMCC 1.876.
The subject of assay [11] is Staphylococcus aureus AS1.72.
In assay [12] the test system is Lactococcus lactis AS1.1690.
The test system of assay [13] is Escherichia coli AS1.349.
In assay [14] the test system is Klebsiella pneumoniae subsp. pneumoniae CGMCC 1.176.
The subject of assay [15] is Streptococcus sanguinis CGMCC 1.2497.
Assay [16] relates to Pseudomonas aeruginosa CGMCC 1.860.
Assay [17] deals with Bacillus cereus AS1.126.
For assay [18], the system named is Streptococcus mutans CGMCC 1.2500.
Assay [19] relates to Enterobacter cloacae CGMCC 1.58.
Assay [20] concerns Enterococcus faecalis CGMCC 1.595.
In assay [21] the test system is Staphylococcus aureus NRS 846.
The test system of assay [22] is Staphylococcus aureus USA 100.
Assay [23] has as its system Acinetobacter baumannii AB1.
Assay [24] relates to Staphylococcus aureus USA 400.
In assay [25] the test system is Klebsiella pneumoniae KP1.
Assay [26] deals with Pseudomonas aeruginosa.
Assay [27] relates to Staphylococcus aureus ATCC 43300.
In assay [28] the test system is Pseudomonas aeruginosa TRPA 111.
For assay [29], the system named is Staphylococcus aureus ATCC 6538.
Assay [30] has as its system Klebsiella pneumoniae KP4.
Assay [31] concerns Staphylococcus epidermidis NRS 101.
Assay [32] has as its system Klebsiella pneumoniae KP2.
The test system of assay [33] is Staphylococcus aureus VRSA4.
Assay [34] relates to Staphylococcus aureus NRS 1.
Assay [35] has as its system Acinetobacter baumannii AB2.
Assay [36] concerns Staphylococcus aureus RN4220.
Assay [37] deals with Staphylococcus aureus 4003.
In assay [38] the test system is Staphylococcus aureus ATCC BAA-44.
Assay [39] relates to Acinetobacter baumannii AB3.
The subject of assay [40] is Klebsiella pneumoniae KP3.
Assay [41] has as its system Pseudomonas aeruginosa TRPA 108.
In assay [42] the test system is Acinetobacter baumannii.
Assay [43] concerns Staphylococcus aureus ATCC 25923.
Assay [44] has as its system Salmonella enterica serovar Typhimurium.
Assay [45] concerns Mycobacterium tuberculosis FYX.
The test system of assay [46] is Pseudomonas aeruginosa PAO1.
Assay [47] deals with Pseudomonas aeruginosa H103.
The test system of assay [48] is Escherichia coli ATCC 25922.
The test system of assay [49] is Staphylococcus aureus.
For assay [50], the system named is Mycobacterium tuberculosis CAS3.
In assay [51] the test system is Mycobacterium tuberculosis H37Rv.
Assay [52] deals with Escherichia coli.
Assay [53] deals with Mycobacterium tuberculosis WXY.

In brackets after ≈: the same amount, converted by molar mass. Several values for one entry are separate records, joined by “and”; a condition that tells them apart may be missing. Identical values can stand only once.

A word on the MIC: it is the lowest concentration found to suppress growth. Higher therefore signals a less susceptible organism. With `CC(C)[C@H](NC(=O)[C@H](Cc1cnc[nH]1)NC(=O)[C@H](C)NC(=O)[C@H](C)NC(=O)[C@H](CCCCN)NC(=O)[C@H](CCCCN)NC(=O)[C@H](Cc1ccccc1)NC(=O)[C@H](Cc1ccccc1)NC(=O)[C@H](CO)NC(=O)CNC(=O)[C@H](Cc1c[nH]c2ccccc12)NC(=O)CN)C(=O)NCC(=O)O` [GWGSFFKKAAHVG], the minimal inhibitory concentration (MIC) was 52 µM (≈ 72.4 µg/mL) in [1], 57 µM (≈ 79.3 µg/mL) in assay [2], not below 58 µM in [3] and not below 43.6 µM in assay [4].
In the case of `CC[C@H](C)[C@H](N)C(=O)N[C@@H](CCCCN)C(=O)N[C@@H](CCCCN)C(=O)N[C@H](C(=O)N[C@H](C(=O)N[C@@H](CO)C(=O)N[C@@H](CCCCN)C(=O)N[C@H](C(=O)N[C@@H](CCCCN)C(=O)N[C@@H](CCCCN)C(=O)N[C@H](C(=O)N[C@@H](CC(C)C)C(=O)N[C@@H](CCCCN)C(N)=O)C(C)C)[C@@H](C)CC)C(C)C)[C@@H](C)CC` [IKKIVSKIKKVLK], the MIC in assay [5] is 6.25 µM (≈ 9.53 µg/mL); in [6] it was 7.81 µM (≈ 11.9 µg/mL); in assay [7], 6.25 µM (≈ 9.53 µg/mL); in assay [8], 6.25 µM (≈ 9.53 µg/mL); in assay [9], 6.25 µM (≈ 9.53 µg/mL); in [10] it was 7.81 µM (≈ 11.9 µg/mL). Also, the MIC stood at 6.25 µM (≈ 9.53 µg/mL) in assay [11]; 3.12 µM (≈ 4.76 µg/mL) in assay [12]; 6.25 µM (≈ 9.53 µg/mL) in [13]; 6.25 µM (≈ 9.53 µg/mL) in assay [14]; 6.25 µM (≈ 9.53 µg/mL) in assay [15]; 6.25 µM (≈ 9.53 µg/mL) in [16]. The MIC in [17] came out at 3.12 µM (≈ 4.76 µg/mL); in assay [18], 6.25 µM (≈ 9.53 µg/mL); in assay [19] it was 7.81 µM (≈ 11.9 µg/mL); in [20], 7.81 µM (≈ 11.9 µg/mL).
Turning to `NC(N)=NCCC[C@H](NC(=O)[C@H](CCCN=C(N)N)NC(=O)[C@H](Cc1c[nH]c2ccccc12)NC(=O)[C@H](Cc1c[nH]c2ccccc12)NC(=O)[C@H](CCCN=C(N)N)NC(=O)[C@H](CCCN=C(N)N)NC(=O)[C@H](Cc1c[nH]c2ccccc12)NC(=O)[C@H](Cc1c[nH]c2ccccc12)NC(=O)[C@H](CCCN=C(N)N)NC(=O)[C@H](Cc1c[nH]c2ccccc12)NC(=O)[C@H](Cc1c[nH]c2ccccc12)NC(=O)[C@@H](N)CCCN=C(N)N)C(=O)O` [RWWRWWRRWWRR], the MIC in [21] was 16 µM (≈ 33.2 µg/mL); in [22], 3.38 µM (≈ 7 µg/mL); in [23], 2.41 µM (≈ 5 µg/mL); in assay [24], 2 µM (≈ 4.14 µg/mL); in assay [25], 13 µM (≈ 27 µg/mL); in assay [26], 3.3 µM (≈ 6.84 µg/mL). The MIC is 2 µM (≈ 4.14 µg/mL) in assay [27]; 1.45 µM (≈ 3 µg/mL) in assay [28]; 4 µM (≈ 8.29 µg/mL) in [29]; 15.4 µM (≈ 32 µg/mL) in assay [30]; 4 µM (≈ 8.29 µg/mL) in [31]; 15.4 µM (≈ 32 µg/mL) in assay [32]. Besides, the MIC in assay [33] amounted to 5.66 µM (≈ 11.7 µg/mL); in assay [34], 1 µM (≈ 2.07 µg/mL); in assay [35], 1.45 µM (≈ 3 µg/mL); in [36], 2 µM (≈ 4.14 µg/mL); in assay [37] it was 1.45 µM (≈ 3 µg/mL); in [38], 4 µM (≈ 8.29 µg/mL). Further, the MIC in [39] stood at 5.31 µM (≈ 11 µg/mL); in assay [40], 15.4 µM (≈ 32 µg/mL); in [41], 1.93 µM (≈ 4 µg/mL); in assay [42] it was 2.7 µM (≈ 5.6 µg/mL).
Turning to `CC[C@H](C)[C@H](NC(=O)[C@H](CCCN=C(N)N)NC(=O)[C@H](CC(C)C)NC(=O)[C@H](CCC(N)=O)NC(=O)[C@@H](N)C(C)C)C(=O)N[C@@H](CCCN=C(N)N)C(=O)N[C@H](C(=O)N[C@@H](C)C(=O)N[C@H](C(=O)N[C@H](C(=O)N[C@@H](CCCN=C(N)N)C(=O)N[C@@H](C)C(N)=O)[C@@H](C)CC)C(C)C)C(C)C` [VQLRIRVAVIRA], the MIC in assay [43] is 27.3 µM and 45.9 µM; in assay [44], 23 µM (≈ 32 µg/mL); in [45] it was 26.9 µM (≈ 37.5 µg/mL); in [46] it was 91.8 µM (≈ 128 µg/mL); in assay [47] it was not below 53.8 µM; in assay [26], 64.9 µM (≈ 90.4 µg/mL). For the same compound, the MIC in assay [48] is 23 µM (≈ 32 µg/mL); in assay [49], 64.9 µM (≈ 90.4 µg/mL); in assay [50] it was not below 53.8 µM; in assay [51] it was 21 µM and 26.9 µM; in [52], 64.9 µM (≈ 90.4 µg/mL); in [53], 13.5 µM (≈ 18.7 µg/mL). Also, the MIC in [42] is not below 45.9 µM.

(Values after DBAASP.)
